One series relates to honey bee, A. mellifera. As to the kind of experiment: Acute topical toxicity to adult honey bees. It counts as in vivo, Apis mellifera. To be noted: bifenthrin positive control, 0.3 μg per bee (0.1 μg/bee) topical, 48 h. How it is done:
Frames of late-stage honey bee (A. mellifera) pupae were taken from four colonies at The Ohio State University Honey Bee Lab in Wooster, OH and maintained in a dark humid incubator at 34 °C (Darwin Chambers Co., St. Louis, MO, model H024) until adult bees emerged. New adults were brushed from frames daily and placed in wooden screen cages (21 × 14 × 12 cm) provisioned with 1:1 (w/w) sucrose in water.
Acute toxicity experiments in adult bees were performed as follows. Twenty-four hours after emergence, adult honey bees in cages were anaesthetized with carbon dioxide, divided into groups of approximately 20 bees and placed in plastic-coated paper cups (177 cm^3; UNIQ Paper Yogurt Cup, Frozen Dessert Supplies, Gilbert, AZ) covered with cotton cheesecloth. […] As a positive control, some bees were treated with 3 μl of bifenthrin (0.1 μg/μl); negative controls consisted of bees treated with 3 μl of solvent. Applications were made using a 20 μl micropipette (Fisherbrand Finnpipette F2, Fisher Scientific, Pittsburgh, PA) with disposable plastic tips. After treatment, bees were returned to the paper cups and provided with sugar syrup in punctured 1.5 ml microcentrifuge tubes. […] Bees showing no movement on inspection at 48 h after treatment were scored as dead.

In the next series the target is T1, AnKir1 (Anopheles gambiae, UniProt A0A075M2J8).
T1 sequence (A0A075M2J8 1-555): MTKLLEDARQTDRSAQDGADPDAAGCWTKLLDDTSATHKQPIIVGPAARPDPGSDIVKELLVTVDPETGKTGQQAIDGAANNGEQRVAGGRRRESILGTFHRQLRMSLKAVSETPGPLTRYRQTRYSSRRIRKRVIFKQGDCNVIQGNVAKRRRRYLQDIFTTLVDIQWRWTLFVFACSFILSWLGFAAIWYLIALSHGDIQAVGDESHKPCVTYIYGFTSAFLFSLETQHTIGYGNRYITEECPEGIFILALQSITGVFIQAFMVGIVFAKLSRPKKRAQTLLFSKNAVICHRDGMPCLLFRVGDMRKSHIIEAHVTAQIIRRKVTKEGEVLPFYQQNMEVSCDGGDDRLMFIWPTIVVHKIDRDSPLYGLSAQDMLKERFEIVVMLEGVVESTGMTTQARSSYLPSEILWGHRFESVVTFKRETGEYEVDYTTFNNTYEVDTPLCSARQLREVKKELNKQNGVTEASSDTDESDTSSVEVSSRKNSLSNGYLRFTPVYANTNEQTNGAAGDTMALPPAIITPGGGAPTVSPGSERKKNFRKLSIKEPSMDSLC
Description: Tl+ flux assay in T-REx-HEK293 cells expressing AnKir1. It counts as cell-based. Particulars: Tl+ flux; for IC50: Tables S2/S3 and supplemental text, read-out: AnKir1 IC50. The method, then: Tl^+ flux assays were performed essentially as described previously. Briefly, stably transfected T-Rex-HEK-293 cells expressing AnKir1 channels were cultured overnight in 384-well plates (20,000 cells/20 μL/well black-walled, clear-bottomed BD PureCoat amine-coated plates (BD, Bedford, MA) with a plating media containing DMEM, 10% dialyzed FBS and 1 μg/mL tetracycline. Approximately twenty-four hours after cell plating, the cell culture medium was replaced with a dye-loading solution containing assay buffer (Hanks Balanced Salt Solution with 20 mM HEPES, pH 7.3), 0.01% (w/v) Pluronic F-127 (Life Technologies, Carlsbad, CA), and 1.2 μM of the thallium-sensitive dye Thallos-AM (TEFlabs, Austin, TX). Following 1 hr incubation at room temperature, the dye-loading solution was washed from the plates and replaced with 20 μL/well of assay buffer.
Tl+ flux assay development
Tl+ flux assays were performed essentiall y as described previousl y (1). Briefl y, stabl y transfect ed T-Rex -HEK- 293- AnKir1 cells were cultured overnight in 384-well plates in media containing DMEM, 10% dial yz ed FBS and 1μg/ m L tetrac ycline to induce channel expression
(Fig. S1A). The next day, the cell culture medium was replaced with a dye-loading solution containing assay buffer (Hanks Balanced Salt Solution with 20 mM HEPES, pH 7.3), 0.01% (w/v) Pluronic F-127 (Li fe Technologies, Carlsbad, CA), and 1.2 μM of the thallium-sensitive dye Thallos-AM (TEFl abs, Austin, TX). Following 1 hr incubation at room temperature, the d ye-loading solution was washed from the plates and replaced with 20 μ L/well of assa y buffer. The plates were transferred t o a Ham amatsu Functional Drug Screening System 6000 (FDSS6000; Hamamatsu, Tokyo, J apan) where 20 μ L/well of test compounds in assay buffer (as prepared below) were added and allowed to incubate with the cells for 20 min. After the incubation period, a baseline recordi ng was collected at 1 Hz for 10 s (excitation 470 ± 20 nm, emission 540 ± 30 nm) followed by a t hallium stimulus buffer addition (10 μL/well) and data collection for an additional 4 min. The Tl + stimulus buffer contains in (mM) 125 NaHCO3, 1.8 CaSO4, 1 MgSO4, 5 glucose, 12 Tl2SO4, 10 HEPES, pH 7.4. For Tl + flux assays on Kir2.x, Kir4.1 and Kir6.2/SUR1 ex pressing cells, the Tl+ stimulus buffer contained 1.8 mM Tl 2SO4. To ensure the small-molecule vehicle DMSO had no direct effect on An Ki r1-dependent Tl+ flux, the assa y’s tolerance to different doses of DMSO was evaluated (Fig. S1B). The robustness and reproducibility of the assay was determined by comparing Tl+ flux through tetracycline-induced and tetracycline-uninduced cells (Fig. S1C). The Z’ value was calculated as described previously (1 ), using the […]
Z’ = 1- (3SD p + 3SD n)/ |meanp + meann | where SD is standard deviation, p and n are control and uninduced flux values respectivel y.
To compare the effect of DMSO on An Kir1-mediated Tl+ flux, a one-way ANOVA was performed with a Tuke y’s multiple comparison test. Prism software (GraphPad Software) was used to generate CRC from Tl+ fl ux ..Half-inhibition concentration (IC50) values were calculated from fits using a four parameter logistic equation.
High-throughput screeni ng
The test compounds were transferred to daughter pol yprop ylene 384-well plates (G reiner Bio-One, Monroe, NC) using an Echo555 liquid handler (Labcyte, Sunnyvale, CA), and then diluted into assay buffer to generat e a 2X stock in 0.6% DMSO (0.3% final). For Tl+ flux assays on Kir6.2/SUR1 expressing cells, test compounds were diluted in assay buffer containing diazoxide (250 μM final) to induce channel activation. Concentration- response curves (CRCs) were gener ated b y screening compounds at 3-fold dilution series (1 nM - 30 μM).
Tl+ flux data were anal yzed as previousl y d escri bed (2, 3) using a combination of Excel (Microsoft Corp, Redmond, WA) with XLfit add-in (IDBS, Guildford, Surre y, UK), Ori ginPro […]

The next series deals with An. gambiae G3 strain. More on the design: method as in PMID 26047119. Particulars: topical, (95% confidence limits); cited from earlier work.
Another series relates to An. gambiae Akron strain. Particulars: topical, (95% confidence limits); cited from earlier work.
Another series has as its system mosquitoes. More on the design: method as in PMID 24959745. To be noted: cited from earlier work.
A further series relates to mosquito Kir1 channels. Also noted: method as in PMID 24959745. Particulars: read-out: IC50 against mosquito Kir1 channels in vitro; cited from earlier work.

Molecules are shown by their SMILES.

Data on six compounds can be found in paper PMC5111108, “An insecticide resistance-breaking mosquitocide targeting inward rectifier potassium channels in vectors of Zika virus and malaria” (Scientific Reports, 2016).

For the compound `Cc1c(COC(=O)[C@@H]2[C@H](/C=C(\Cl)C(F)(F)F)C2(C)C)cccc1-c1ccccc1` (racemic) [bifenthrin, reference compound], the “honey bees dead (mortality)” value with honey bee, A. mellifera was found to be 100%.
Regarding `O=C(CN1CCCc2ccccc21)N1CCCc2ccccc21` [Compound 6], the half-inhibitory concentration (IC50) at AnKir1 worked out at 8 µM.
For `O=C(Cn1nc(C(F)(F)F)c2c1CCCC2)N1CCc2ccccc2C1` [Compound 8], at AnKir1, the “loss of potency vs VU041 (AnKir1)” value is ~ 7 fold and the 50% inhibitory concentration (IC50) was determined as 15 µM.
`O=C(Cn1nc(C(F)(F)F)c2c1CCCC2)N1CCOc2ccccc21` [Compound 14]: the half-inhibitory concentration (IC50) on AnKir1 came out at 4.6 µM.
In the case of `CC1(C)C(C=C(Cl)Cl)C1C(=O)OCc1cccc(Oc2ccccc2)c1` (stereo not drawn) [Permethrin], the “ED50, G3 Strain” value in the series on An. gambiae G3 strain is 0.03e-5 (0.02e-5–0.05e-5) μg/mg. The “ED50, Akron Strain” value in the series on An. gambiae Akron strain is recorded as 1.0e-3 (0.8e-4–1.3e-3) μg/mg.
Consider `CCC(=O)N1c2ccc(S(=O)(=O)Nc3cccc(OC)c3)cc2CC1C` (stereo not drawn) [VU625], for which the “topical toxicity to mosquitoes” value with mosquitoes is “not topically toxic to mosquitoes”. In addition, the IC50 in the series on mosquito Kir1 channels is around 0.1 µM.

One may read the IC50 as the concentration that inhibits the measured activity by half.
